Data: patent US10966957B2, “Method of treating cancer with combinations of histone deacetylase inhibitors (HDAC1) substances” (Research Cancer Institute of America, priority 2011, dated 2021)

Tests used:
patients with cancer = assay type: in vivo, human; conditions: octreotide subcutaneously at 50-400 mcgs
From the text: As of October 2011, 40 patient charts were selected randomly and reviewed. The inclusion criteria were diagnosis of cancer. No patients were excluded. Patients were aged 27 to 83 years. All were diagnosed by their oncologist/physician and were offered standard conventional treatment of surgery, traditional chemotherapy or radiation.
The patients were managed based on unique developed protocols that were designed in correlation with available research studies and clinical trials that implicate using specific natural and synthetic IV therapies. IV therapies are targeted at epigenetic level and consist of antioxidants, quercetin, DCA, sodium phenyl butyrate, and lipoic acid separately or in combination. All patients received one or more of such treatments. […] Doses of each treatment remained the same or close on each treatment, Quercetin was given intravenously at the dose 0.5 to 1.0 gram (50 mg/ml).
The progression of disease was measures during the course of treatment through tumor markers, Imaging studies and markers for cancer growth, necrosis, LDH, and inflammation, CRP, as well as the Natural killer cell activity or lymphocyte count and Circulatory tumor cells.

[1] = tested on: refractory solid tumor malignancies; conditions: cited from earlier work
prostate cancer cells = conditions: cited from earlier work
[2] = tested on: cancer deemed no longer treatable by conventional methods; conditions: cited from earlier work
tyrosine kinase = conditions: measured in 11 subjects; cited from earlier work
acites tumor cells = conditions: injected peritoneally; cited from earlier work
[3] = tested on: human squamous cell carcinoma line; conditions: injected interperitoneally; minimal effects on surrounding normal cells; cited from earlier work
[4] = tested on: MBT-2 bladder transitional cell carcinoma, B16-F10 melanoma and LL/2 Lewis lung carcinoma; conditions: depending on concentrations; cited from earlier work

## Octreotide
Patients with cancer
  Lowering of IgF-1 by octreotide in the protocols: lowering the IgF-1 significantly

## Sodium phenylbutyrate [SPB]
[1]; oral doses up to 36 grams per day
  Toxicity of oral doses: minimal toxicity
[1]; oral
  Patients with stable disease for more than 6 months while on the drug: 25%
Prostate cancer cells
  Potency relative to phenylacetate: more potent than phenylacetate

## O=c1c(O)c(-c2ccc(O)c(O)c2)oc2cc(O)cc(O)c12 [Quercetin]
[2]; intravenous
  Dose recommended for phase 2 studies: ≤ 1400 mg/m2
[2]; of 50 patients, metastatic hepatocellular carcinoma and stage 4 metastatic ovarian cancer
  Patients with sustained decreases in unique cancer markers: two
[2]; up to 1700 mg/m2 intravenous for 3 weeks, 50 patients
  Suppression as defined by the radiological criteria of WHO: None of the patients achieved suppression
Tyrosine kinase
  Subjects with a decrease in tyrosine kinase levels: 9
Acites tumor cells
  Increase in lifespan: 20%
[3]
  Inhibition of cancer growth: selective inhibition of cancer growth

## O=C(O)CCCCC1CCSS1 (centres unmarked) [Lipoic acid]
[4]
  Reduction of cell number: 10-50%
